Experimental data as given in PubChem BioAssay (NCI).
Values joined by “and” are separate entries in the source; they are usually repeats but may differ in a detail not shown here. Equal entries are not always repeated.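 Compound exposure: 48 hours, 5 concentrations, 96-well plates. GI50 is the concentration that inhibits growth by half. The concentration for full growth arrest is given as TGI.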

Tested on: MDA-MB-468 breast
Assay: growth of human tumour cells (NCI), 48 h

SMILES | GI50 | TGI [µM]
c1ccc([P+](c2ccccc2)(c2ccccc2)c2ccc3c4ccc([P+](c5ccccc5)(c5ccccc5)c5ccccc5)c5cccc(c6cccc2c63)c54)cc1 | 0.838 µM | 7.46
O=c1c2cc(F)ccc2sc2c(Nc3ccncc3)nc3ccccc3c12 | 1.78 µM | 3.5
COc1cc(-c2ccc(-c3ccc(C(=N)N)cc3)s2)cc(OC)c1OC | 1.64 µM | 3.15
CC1(C)CN(c2cc(C(F)(F)F)cc3cncn23)CCC12NC(=O)NC2=O (stereo not drawn) | 22.5 µM | 82.9
COc1cc2c(cc1I)-c1c(cc(OC)c(OC)c1OC)CC[C@@H]2NC(C)=O | 0.244 µM | 0.738
COc1cc2c(cc1OCCCCCn1c(-c3ccc(OCc4ccccc4)cc3)nc3cc(N4CCOCC4)ccc31)N=C[C@@H]1CCCN1C2=O | 0.936 µM | 5.1
Cn1ncc(NC(=O)c2nc(-c3c(F)cccc3F)sc2N)c1N1CC[C@@H](N)[C@H](F)CC1 | 9.7 µM | 26.8
Nc1nonc1C(=Nc1ccc(F)c(Cl)c1)NO | 29.8 µM | > 100
O=C(Nc1ccc(Br)cc1)Nc1nc2ccc([N+](=O)[O-])cc2s1 | 1.67 µM | 3.29
CNC(=O)NCC1OC(n2cnc3c(NC(=O)Nc4ccccc4)ncnc32)C(O[Si](C)(C)C(C)(C)C)C1CC(=O)N(C)OC (stereo not drawn) | 1.87 µM | 6.38
O=C(NNc1nc2cc(F)c(F)cc2n2cccc12)c1ccncn1 | 0.241 µM | 1.58
COC(=O)[C@@H](C)C[C@H](Cc1ccc2ccccc2c1)NC(=O)c1csc([C@@H](C[C@H](C(C)C)N(C)C(=O)[C@@H](NC(=O)[C@H]2CCCCN2C)C(C)C)OC(C)=O)n1 | 0.00683 µM | > 25
O=C1[C@@H]2Cc3c([nH]c4ccccc34)[C@H](c3c(Cl)cccc3Cl)N2C(=O)CN1C1CCN(Cc2ccccc2)CC1 | 2.09 µM | 4.27
COc1cc2c3c(n(CCCNC4CCC4)c(=O)c2cc1OC)-c1cc2c(cc1C3=O)OCO2 | 1.41 µM | 3.22
Nc1nc(N)c(N=Nc2ccccc2)c(-c2ccccc2)n1 | 1.06 µM | 11.4
C=C1C(=O)O[C@H]2[C@H]1CC/C(COC(=O)/C=C/C(=O)NCc1ccc(Cn3c(=O)sn(-c4ccccc4)c3=O)cc1)=C\CC[C@@]1(C)O[C@@H]21 | 1.35 µM | 3.69
C[C@@]1(C(=O)Nc2ccc(F)nc2)CCCN1c1nc(Nc2cc(C3CC3)[nH]n2)c2cccn2n1 | 0.25 µM and 0.526 µM | 4.37
C#CCn1cnc2cnc(Nc3cccc(NC(=O)CCl)c3)nc21 | 8.13 µM | 22.8
C[n+]1c(-c2ccccc2)c2cc(N)ccc2c2ccccc21 | 0.224 µM | 1.53
CCOC(=O)N1C/C(=C/c2ccc(Cl)cc2)C(=O)/C(=C/c2ccc(Cl)cc2)C1 | 1.96 µM | 5

SMILES | GI50 | TGI [µM]
CCNC(=O)N1CCc2cc(OC)c(OCCc3ccc(OC)c(N)c3)cc2C1c1ccc(C)cc1C (stereo not drawn) | 0.301 µM | 15.8
N#Cc1c(-c2ccccc2)cc(-c2ccccc2)n(CCCC(=O)NO)c1=O | 1.46 µM | 4.56
CC(C)=CCC/C(C)=C/CC/C(C)=C/CC/C(C)=C/CSC[C@H](NC(=O)CCCCCN1CCN(C)CC1)C(=O)NC1CCCCC1 | 1.97 µM | 4.49
COc1cc(/C=C/c2cc(/C=C/c3ccc(O)c(OC)c3)n(-c3c(Cl)cccc3Cl)c(=O)n2)ccc1O | 2.76 µM | 7.18
CCn1c(=O)c(Oc2ccc(F)cc2F)cc2cnc(NC3CCOCC3)nc21 | > 25 µM | > 25
CCO/C=N/C1=C(C#N)C(c2ccc(OC)cc2)c2sc3c(F)cccc3c2O1 (stereo not drawn) | 2.41 µM | 19.4
O=C(Nc1nc(-c2ccc(Cl)cc2)cs1)c1cc(-c2ccc(Br)cc2)nc2ccc(Cl)cc12 | 10.9 µM | 78.3
COc1ccc(CC(C)=C(c2ccc(OCCN3CCCCCC3)cc2)c2ccc(OCCN3CCCCCC3)cc2)cc1 | 0.176 µM | 0.667
CCN(CC)Cc1cc(Nc2c3ccc(Cl)cc3nc3ccc(OC)cc23)ccc1O | 1.71 µM | 3.67
COc1cc2ccnc(C=O)c2cc1OC | 31.9 µM | > 100
CC(=O)/C=C/c1ccc(OCc2ccc(C(C)(C)C)cc2)cc1 | 33.9 µM | > 1000
c1ccc2cc(C[n+]3ccn(CCCCCCCCCCCCn4cc[n+](Cc5ccc6ccccc6c5)c4)c3)ccc2c1 | 0.494 µM | 1.28
Clc1ccc2c(c1)C(Br)c1cc(Cl)cc(Cl)c1-2 (stereo not drawn) | 35.6 µM | > 100
COc1ccc(-c2cc(-c3ccccc3)nc(SCCCC(=O)NO)n2)cc1OC | 1.44 µM | 3.62
CC1(C)C(N(O)C(=O)Nc2ccc(Cl)cc2)N(c2ccc(Cl)cc2)C(=O)N1CC(=O)N/N=C/C=C/c1ccc([N+](=O)[O-])o1 (stereo not drawn) | 1.62 µM | 5.35
CCNCc1c(-c2cccc(OC(F)(F)F)c2)[nH]c2ccc(N3CCCC3)cc2c1=O | 2.22 µM | 5.74
O=C(c1ccc(Cl)cc1)c1no[n+]([O-])c1C(=O)c1ccc(Cl)cc1 | 9.22 µM | 27.7
C#C[C@]1(O)CC[C@H]2[C@@H]3CC=C4c5sc(Nc6nc(C)cc(OC)n6)nc5CC[C@]4(C)[C@H]3CC[C@@]21C | 4.47 µM | > 100
COc1ccc(/C=C/C(=O)c2cc3c(N)c(C(=O)Nc4cccc(Cl)c4C)sc3nc2C)cc1 | 0.176 µM | 2.45
